Consider three compounds from ChEMBL document CHEMBL6074690, “Development and Characterization of a High-Affinity Selective Galectin-3 Mouse Tool Compound in Mouse Models of Cancer” (J Med Chem, 2024).

The nature of series [1]: Apparent permeability across basal to apical side in human Caco-2 cells at 10 uM incubated for 90 mins by LC-MS/MS analysis. The format is ADME, cell-based. A general note: Passage across Caco-2 layers is used to estimate intestinal permeability.
A short description of series [2]: Lipophilicity, log D of compound in potassium phosphate buffer/octanol at pH 7.4 by shake flask method. Format: physicochemical.
Series [3] in a line: Intrinsic clearance in mouse hepatocytes measured per million cells at 2 uM incubated for 15 to 120 mins by LC-MS/MS analysis. Format: ADME, cell-based, Hepatocyte. The conditions noted are these: time 15-120 min, read-out: CLH.
A short description of series [4]: Unbound drug level in C57BL/6 mouse at 30 mg/kg, po measured for 12 hrs. The format is ADME, organism-based. Conditions: in vivo; call rule not given here.
Series [5] is described as follows: Apparent permeability across apical to basal side in human Caco-2 cells at 10 uM incubated for 90 mins by LC-MS/MS analysis. The format is ADME, cell-based.
The nature of series [6]: Intrinsic clearance in human hepatocytes measured per million cells at 2 uM incubated for 15 to 120 mins by LC-MS/MS analysis. The format is ADME, cell-based, Hepatocyte. Conditions: time 15-120 min, read-out: CLH.

Some results are limits rather than exact numbers.

One may read the Papp B→A as how fast a substance crosses the layer from the basolateral side. One may read the logD as the decadic logarithm of the distribution of all forms, ionised or not, between an organic phase and buffer at a given pH. A low value points to a more hydrophilic compound. For the compound `OC[C@H]1O[C@@H](Sc2cncc(Br)c2)[C@H](O)[C@@H](n2cc(-c3cc(F)c(Cl)c(F)c3)nn2)[C@H]1O`, in series [1], the Papp B→A at […], 10 µM is 17 ×10⁻⁶ cm/s. The compound also gave a logD in series [2] of more than 4. Moreover, the hepatocyte CLint at 2 µM in series [3] amounted to 0.6 µL/min/1e6 cells. Also, the “Drug uptake(free)” value in series [4] was “Active”.
The Papp A→B is how fast a substance crosses the layer from the apical side. Consider `OC[C@H]1O[C@@H](Sc2ccc(Cl)c(Cl)c2)[C@H](O)[C@@H](n2cc(-c3cc(F)c(F)c(F)c3)nn2)[C@H]1O`, for which the apical-to-basolateral permeability (Papp A→B) at […], 10 µM in series [5] is […]. In addition, the Papp B→A at […], 10 µM in series [1] is […]. The same compound returned a pH-dependent lipophilicity (logD) in series [2] of 4.6. Further, the hepatocyte CLint at 2 µM was 0.7 µL/min/1e6 cells in series [6] and 0.8 µL/min/1e6 cells in series [3].
Consider `OC[C@H]1O[C@@H](Sc2cncc(Br)c2)[C@H](O)[C@@H](n2cc(-c3cc(F)c(F)c(F)c3)nn2)[C@H]1O`, for which the Papp A→B at […], 10 µM in series [5] is […]. Besides, the Papp B→A at […], 10 µM in series [1] turned out to be […]. The pH-dependent lipophilicity (logD) in series [2] amounted to […]. Further, the values for the hepatocyte CLint at 2 µM in series [6] and in series [3] were 0.15 µL/min/1e6 cells and […], respectively.
